Measurements published in patent US20060178307A1, “Modulation of NMDA receptor currents via orexin receptor and/or CRF receptor” (priority 2005, published 2006).
Where no end group is shown, it is not given here.

Tests used:
cocaine reinforcement = experiment: Operant cocaine self-administration, progressive ratio schedule; assay type: in vivo, rats; details: 10 mg/kg i.p. on 4th day of progressive ratio, n=12
Method: Rats were cannulated with an intra-venous cannula to their jugular vein. After one week to 10 days of recovery, the animals were trained to lever press for cocaine (0.5 mg/infusion, 2 second infusion) in Coulburn self-administration boxes. A tone and light above the active lever signalled during a press for cocaine and then a 20 second timeout followed the active lever press.
After 3-4 weeks of self-administration of cocaine (0.5 mg/infusion) ramping from fixed ratio of 1 lever press (FR1) to receive a reward to a stable fixed ratio of 5 lever presses to receive a reward (FR5) schedule, animals lever pressed for cocaine on a progressive ratio schedule for 4 days. On the second and third day, each animal received a vehicle injection (i.p.), and on the fourth day the animals received an injection (i.p.) of the OXR1 antagonist: SB334867, 10 mg/kg. As a control, orexin modulation of food self-administration was examined under the same paradigm. For food self-administration, animals were trained to an FR5 schedule for food pellets.

NMDAR mEPSCs = NMDAR mEPSCs in Mg2+-free buffer at −40 mV; assay type: cell-based, rat
Method: To examine changes in number or function of NMDARs after orexin treatment NMDAR mEPSCs were recorded in buffer without Mg^2+, and in the presence CNQX (10 μM), glycine (20 μM) and lidocaine (500 μM). Orexin A (100 nM) caused a significant increase in amplitude in NMDAR mEPSCs 15 min after application (17.1±0.7 pA, n=8, FIG. 7B,D,F) compared to untreated neurons (14.2±0.9 pA, n=8, FIG. 7A,D,F) or at 3-4 hours after orexin A application (13.9±0.5 pA, n=7, FIG. 7C,D,F).
(§1) AMPAR mEPSCs were recorded in cells voltage-clamped at −70 mV in lidocaine (500 μM), APV (50 μM) and sucrose (100 mM). NMDAR mEPSCs were recorded at −40 mV in Mg2+-free external solution with lidocaine (500 μM), glycine (20 μM), and CNQX (10 μM). mEPSCs were collected using Clampex (Axon Instruments) and analyzed using Mini Analysis Program (Synaptosoft). Detection criteria were set at >10 pA, <1 ms rise-time, and <3 ms decay-time for AMPAR mEPSCs and >10 pA, <1 ms rise-time, and <10 ms decay-time for NMDAR mEPSCs. mEPSC traces were recorded while sampling every 10 μs, the images were filtered at 5 kHz. Averaged mEPSCs were constructed using Mini Analysis Program (Synaptosoft).

AMPAR mEPSCs = experiment: AMPAR-mediated miniature EPSCs (mEPSCs) in VTA neurons; assay type: cell-based, rat
Method: Next, to investigate whether AMPAR function and/or number was modified with orexin A treatment, AMPAR-mediated miniature EPSCs (mEPSCs) were examined (a standard method for determining the locus of synaptic change). Compared to untreated neurons, orexin A (100 nM) caused a significant increase in both amplitude (FIG. 6C,D,F) and frequency (FIG. 6C,E,G) 3-4 hours after application (24±1.6 pA; 2.4±0.5 Hz; n=7 vs control: 13±1.3 pA; 0.93±0.16 Hz; n=7; FIG. 6A), but not at 15 min (15±1.7 pA; 0.9±0.1 Hz; n=[…], FIG. 6B).
as §1

[1] = system: AMPAR-mediated EPSCs in VTA dopamine neurons; experiment: Evoked AMPAR-mediated EPSCs recorded at −70 mV, VTA slices; assay type: cell-based, rat; details: orexin A 100 nM
Method: Excitatory postsynaptic currents (EPSCs) were recorded from VTA neurons in rat midbrain slices. EPSCs were evoked while holding neurons in voltage clamp at +40 mV. Measurements were taken 20 ms after the stimulus artifact, a time point at which the glutamatergic EPSC is mediated purely by NMDARs.
All of the electrophysiological recordings were performed in rats ranging from P21 to P30. Briefly, rats were anesthetized with halothane and sacrificed. Horizontal sections of the VTA ([…]) were prepared with a vibratome (Leica, Nussloch, Germany). Slices were placed in a holding chamber and allowed to recover for at least 1 hour before being placed in the recording chamber and superfused with bicarbonate-buffered solution (ACSF) saturated with 95% O2/5% CO2 and containing (in mM): 119 NaCl, 1.6 KCl, 1.0 NaH2PO4, 1.3 MgCl2, 2.5 CaCl2, 26.2 NaHCO3 and 11 glucose (at 32-34° C.). Picrotoxin (100 μM) was added to block GABAA receptor-mediated inhibitory postsynaptic currents. Cells were visualized using infrared differential interference contrast video microscopy. Whole-cell voltage clamp recordings were made using an Axopatch 1D amplifier (Axon Instruments, Union City, Calif.). […] Series resistance (10-40 MΩ) and input resistance were monitored on-line with a 4-mV depolarizing step (50 ms) given just after every afferent stimulus. […]

AMPAR-induced current = experiment: Holding current change on bath-applied AMPA with cyclothiazide; assay type: cell-based, rat
[2] = 3-4 hours after orexin A 100 nM, n=7
[3] = 3-4 hours after orexin A, APV 50 μM applied 3 min prior and during orexin, n=7
[4] = 15 min after orexin A 100 nM, n=6

Row | Compound | breakpoint (cocaine) (cocaine reinforcement) | natural log of active lever presses for cocaine (cocaine reinforcement) | raw active lever presses for cocaine (cocaine reinforcement) | total number of cocaine infusions (cocaine reinforcement) | frequency of NMDAR mEPSCs (NMDAR mEPSCs; 3-4 hours after orexin A) | NMDAR mEPSC amplitude (NMDAR mEPSCs; 3-4 hours after orexin A, n=7) | frequency of NMDAR mEPSCs (NMDAR mEPSCs; 15 min after orexin A) | NMDAR mEPSC amplitude (NMDAR mEPSCs; 15 min after orexin A 100 nM, n=8) | AMPAR mEPSC amplitude (AMPAR mEPSCs; [2]) | AMPAR mEPSC frequency (AMPAR mEPSCs; [2]) | AMPAR mEPSC amplitude (AMPAR mEPSCs; [3]) | AMPAR mEPSC frequency (AMPAR mEPSCs; [3]) | AMPAR mEPSC amplitude (AMPAR mEPSCs; [4]) | AMPAR mEPSC frequency (AMPAR mEPSCs; [4]) | change of AMPAR-mediated EPSCs ([1]; n=8) | change of AMPAR-mediated EPSCs ([1]; n=8, listed as Orexin A) | AMPAR-induced current (AMPAR-induced current; AMPA 2 μM 30 sec + cyclothiazide 100 μM, 15 min after orexin A 100 nM, n=5) | AMPAR-induced current (AMPAR-induced current; AMPA 2 μM + cyclothiazide, 3-4 hours after orexin A 100 nM, n=6)
1 | Cc1nc2ccc(NC(=O)Nc3ccnc4cccnc34)cc2o1.Cl [SB 334867, 1-(2-methylbenzoxazol-6-yl)-3-[1,5]naphthyridin-4-yl urea hydrochloride] | reduced | reduced | reduced | decreased |  |  |  |  |  |  |  |  |  |  |  |  |  | 
2 | orexin A: neuropeptide synthesized in neurons of the LH; orexin receptor agonist selective for the OXR1 receptor (QPLPDCCRQKTCSCRLYELLHGAGNHAAGILTL; ends and bridges not checked; cysteine pairing not given here; UniProt O43612 34-66, looked up) |  |  |  |  | 2.5±0.4 | 13.9±0.5 pA | 2.1±0.3 | 17.1±0.7 pA | 24±1.6 pA | 2.4±0.5 Hz | 16±0.6 pA | 1.6±0.3 Hz | 15±1.7 pA | 0.9±0.1 Hz | not changed | does not increase | −243±79 pA | −367±63 pA
